Test results from patent publication US20110212475A1, “Fluorescently Or Spin-Labeled Kinases For Rapid Screening And Identification Of Novel Kinase Inhibitor Scaffolds” (priority 2008, published 2011).

Columns and labels:
p38α [1] = target: T1, p38α (Homo sapiens, UniProt Q16539, A172C/C119S/C162S/F327L); assay: acrylodan-labeled p38α (ac-p38α) fluorescence binding assay, endpoint Kd measurements; conditions: for Kd: pyrazolourea derivatives of BIRB-796, 50 nM ac-p38α, cuvettes
T1 construct: His-tag with PreScission site (N, cleaved yes); GST (N); made in house; host or cells: E. coli BL21(DE3)

p38α [2] = target: T1, p38α; assay: ac-p38α real-time fluorescence measurements of binding and dissociation kinetics; conditions: for t1/2 of dissociation: t1/2 = ln 2/kobs; for real-time fluorescence response upon addition to ac-p38α: cuvette method, acrylodan emission at 468 nm
Method: The conditions for such measurements are currently being further optimized (buffer, temperature, protein and inhibitor concentrations, length of incubation).
The addition of excess kinase causes the inhibitor to redistribute, resulting in a net dissociation of inhibitor from ac-p38α and a fluorescence increase which was fit to a first-order function.
After measuring koff for allosteric compounds, Applicants established conditions for measuring the kon of the same compounds. This was accomplished using the cuvette method by adding various concentrations of inhibitor to ac-p38α and fitting the fluorescence decay to a first-order function.

p38α [3] = target: p38α (Homo sapiens, UniProt Q16539); assay: HTRF kinase assay (CisBio), activity-based, p38α; format: biochemical; conditions: compounds HTS 1-15
cSrc = target: T2, cSrc (Gallus gallus, UniProt P00523, C277S/C483S/C496S/L407C); assay: acrylodan-labeled cSrc fluorescence binding assay; parameters: species or system chicken; conditions: any concentration
T2 construct: The chicken cSrc gene (residues 251-533); His tag with PreScission site (N, cleaved yes); made in house; host or cells: E. coli BL21(DE3) Codon+RIL
Method: Acrylodan-labeled cSrc (50 nM) was placed into cuvettes with a rapidly stirring mini stir bar while monitoring acrylodan fluorescence (left panel).
Crystal structures of chicken cSrc (kinase domain) in the DFG-in and DFG-out conformations were closely examined to identify a suitable fluorophore attachment site near the N-terminal end of the activation loop of cSrc which would report the binding of allosteric inhibitors by sensing changes in the activation loop conformation. Care was taken to not choose residues that were known phosphorylation sites or other sites that appeared to be critical to maintaining protein stability. A Cys was introduced into the chosen position (L407C) by site-directed mutagenesis while non-specific labeling was minimized by conservatively mutating other solvent exposed Cys into Ser (C277S, C483S, C496S).
Pure cSrc kinase containing the labeling site Cys mutation (L407C) and acrylodan (dissolved in DMF) were combined in buffer (pH 7.0) at a ratio of 1:1.5 protein:fluorophore and allowed to react in the dark overnight at 4° C. […] The labeled cSrc was then aliquoted, kept dark and frozen at −20° C.
Screening initiatives were carried out for acrylodan-labeled cSrc in 384-well plates. Stocks of candidate compounds were prepared in DMSO at 20× the final desired concentration. […]

p38α [4] = target: T1, p38α; assay: HTS screen with acrylodan-labeled p38α, 384-well secondary screen for Kd; format: binding; conditions: compounds HTS 1-15
Method: The complete screen was carried out by first using the labeled kinase binding assay in a 384-well HTS format to initially screen for possible ligands for the DFG-out conformation, or DFG-out binders. This was accomplished by first performing a primary screen at a single concentration of each ligand, followed by a secondary screen over a range of concentrations to directly determine the Kd of each potential hit.
The methods for the setup and execution of the screen are provided below. […] Large volumes of the same buffer were also use to prepare solutions for pipetting background (no labeled kinase added) and screening plates (+100 nM acrylodan-labeled p38α).
An industrial pipetting robot was used to first dispense […] of pre-diluted compounds into a set of two 384-well small volume assay plates. Subsequently, 15 μl of buffer was added to the background plate while the same volume of buffer containing the labeled kinase was added to the screening plate to detect DFG-out binders. […] A Tecan Safire^2 instrument was used to measure the fluorescence read-out in the 384-well plate format.
A secondary screen was carried out also in 384-well plates using a range of concentrations (100 nM to 50 μM) of each ligand in order to generate binding curves or identify false hits which were picked up due to high degrees of fluorescence interference. […] As before, large volumes of the same buffer were also used to prepare solutions for pipetting background (no labeled kinase added) and screening plates (+100 nM acrylodan-labeled p38α). The pipetting robot was used to first dispense 3.5 μl of pre-diluted compounds into a set of two 384-well small volume assay plates. Each plate contained no more than 7 different compounds identified in the primary screen, each screened at 10 concentrations (100 nM to 50 μM) and 4 wells per concentration. Subsequently, 3.5 μl of buffer was added to the background plate while the same volume of buffer containing the labeled kinase was added to the screening plate. Plates were sealed, incubated and measured as described for the primary screen. […] An exemplary sample plate layout is shown below.
Where indicated, binding curves were also plotted as % p38α bound by the ligand. The % p38α bound is calculated as follows: […]

DU145 cells [5] = assay: immunoblot analysis of pSrc and pFAK in DU145 cells; format: cell-based; conditions: 5 hr treatment; 11c 1, 2, 5, 10 μM, dasatinib 100 nM
Method: (§1) PC3 and DU145 were generously provided by Dr. Roman Thomas (Max Planck Institute for Neurological Research, Cologne). The cells were cultured in Dulbecco's modified Eagle's medium (DMEM) supplemented with 10% heat-inactivated fetal bovine serum (FBS) and 100 units/mL penicillin/streptomycin. Cells were cultured at 37° C. in humidified air containing 5% CO2. After inhibitor treatment (5 h), the cells were washed twice in cold phosphate-buffered saline (PBS) and then lysed for 10 min on ice in lysis buffer (20 mM Tris-HCl pH 7.5, 150 mM NaCl, 1% Triton, 1 mM Na2EDTA, 1 mM EGTA, 2.5 mM sodium pyrophosphate, 1 mM β-glycerophosphate, 1 mM Na3VO4, 1 μg/mL leupeptin, 1 mM PMSF, and common protease inhibitors). Subsequently, cells were centrifuged for 20 min at 20000×g and 4° C. The supernatant was subjected to immunoblot analysis.
(§2) Protein concentration was measured using a spectrophotometer (ND-1000, peQLab). Equal amounts of protein were separated by SDS-PAGE and transferred to nitrocellulose membranes. […] After washing, blots were incubated with secondary antibodies and then detected on film using the enhanced chemiluminescence (ECL) detection system.
(§3) Applicants monitored the phosphorylation state of Y416—an autophosphorylation site in the activation loop of cSrc—and Y576/Y577—two residues in the activation loop of focal adhesion kinase (FAK). […]

PC3 cells [6] = assay: immunoblot analysis of pSrc and pFAK in PC3 cells; format: cell-based; conditions: 5 hr treatment; 11c 1, 2, 5, 10 μM, dasatinib 100 nM
Method: as §1, §2, §3

PC3 cells [7] = assay: cell-to-cell contacts by light microscopy, PC3 cells; format: cell-based; conditions: 24 hours treatment; 11c 10 μM, dasatinib 100 nM
Excerpt: (§4) Reduction of cell-to-cell-contacts and cell proliferation in PC3 and DU145 cells by (11c, RL46). […] Total expression of FAK was unchanged while cSrc expression was increased in both cell lines. (b). Cell-to-cell contacts visualized by light microscopy at 10× magnification.

DU145 cells [8] = assay: cell-to-cell contacts by light microscopy, DU145 cells; format: cell-based; conditions: 24 hours treatment; 11c 10 μM, dasatinib 100 nM
Excerpt: as §4

T1 sequence (Q16539 whole entry C119S/C162S/A172C/F327L): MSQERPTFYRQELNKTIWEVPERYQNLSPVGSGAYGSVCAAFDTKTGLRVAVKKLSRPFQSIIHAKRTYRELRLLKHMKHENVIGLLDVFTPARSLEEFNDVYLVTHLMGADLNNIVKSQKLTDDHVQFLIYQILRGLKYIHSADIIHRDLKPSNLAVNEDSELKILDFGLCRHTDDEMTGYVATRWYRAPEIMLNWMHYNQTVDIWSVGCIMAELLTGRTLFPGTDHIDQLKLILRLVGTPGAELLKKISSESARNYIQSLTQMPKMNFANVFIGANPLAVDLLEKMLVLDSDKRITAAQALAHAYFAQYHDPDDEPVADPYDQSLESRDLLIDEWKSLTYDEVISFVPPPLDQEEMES
Sequence of p38α (Homo sapiens, UniProt Q16539) (Q16539 whole entry): as the sequence (Q16539 whole entry C119S/C162S/A172C/F327L) above, with S119C, S162C, C172A, L327F counted along it

SMILES | IC50 (p38α [3]) [µM] | Kd (p38α [4]) [µM] | further results
Cc1ccc(-n2nc(C(C)(C)C)cc2NC(=O)Nc2ccc(Cl)cc2)cc1Cl [12b, RL18] |  |  | Kd (p38α [1]; read-out: Kd): 18 nM
CNC(=O)c1cc(Oc2ccc(NC(=O)Nc3ccc(Cl)c(C(F)(F)F)c3)cc2)ccn1 [sorafenib, reference compound] |  |  | t1/2 of dissociation (p38α [2]): 2.4 min
CC(C)(C)c1cc(NC(=O)Nc2ccc(Cl)cc2)n(-c2ccc(C(F)(F)F)cc2Cl)n1 [7, RL19] |  |  | fluorescence response of ac-p38α (p38α [1]; endpoint measurements): complete lack of fluorescence response; Kd (p38α [1]): No Binding; fluorescence ratio response (cSrc): did not respond
Cc1ccc(-n2nc(C(C)(C)C)cc2NC(=O)Nc2ccc(Cl)cc2)cc1 [12c, RL17] |  |  | Kd (p38α [1]; read-out: Kd): 34 nM
Cc1ccc(-n2nc(C(C)(C)C)cc2NC(=O)Nc2ccc(OCCN3CCOCC3)cc2)cc1 [15, RL39] |  |  | t1/2 of dissociation (p38α [2]): 11.2 min
Brc1cccc(-c2nc3cnccn3c2NC2CCCC2)c1 [HTS 15] |  | 27.5 ± 5.3 | 
Fc1cccc(COc2ccc(Nc3ncnc4ccccc34)cc2Cl)c1 [HTS 4] | > 50 | 10.3 ± 2.2 | 
Cc1cccc(-n2nc(C(C)(C)C)cc2NC(=O)Nc2ccc(Cl)cc2)c1 [12a, RL29] |  |  | t1/2 of dissociation (p38α [2]): 52.3 min
CC(=O)Nc1ccc(C(=O)Nc2ccc(-c3nc4cc(NC(=O)c5ccc(NC(C)=O)cc5)ccc4[nH]3)cc2)cc1 [HTS 7] | 15.3 ± 2.8 | 6.18 ± 2.31 | 
COC(=O)C1=CO[C@@H](C)[C@H]2CN3CCc4c([nH]c5cc(OC)ccc45)[C@H]3C[C@@H]12 [HTS 3] | 18.3 ± 7.2 | 2.2 ± 0.11 | 
Clc1cccc(-c2nc3cnccn3c2NC2CCCCC2)c1 [HTS 14] |  | 100 ± 5.8 | 
O=C(CSc1cn(CCNC(=O)c2cccc(C(F)(F)F)c2)c2ccccc12)Nc1ccc2c(c1)OCCO2 [HTS 13] | 1.1 ± 0.4 |  | 
Cc1ccc(-n2nc(C(C)(C)C)cc2NC(=O)Nc2cccc3ccccc23)cc1 [14a, RL36] |  |  | Kd (p38α [1]; read-out: Kd): 11 nM
Cc1nc(Nc2ncc(C(=O)Nc3c(C)cccc3Cl)s2)cc(N2CCN(CCO)CC2)n1 [Dasatinib] |  |  | pSrc and pFAK levels (DU145 cells [5]): markedly reduced; pSrc and pFAK levels (PC3 cells [6]): markedly reduced; cell-to-cell contacts and intact cells (PC3 cells [7]): markedly reduced cell-to-cell-contacts and fewer intact cells; real-time fluorescence response upon addition to ac-p38α (p38α [2]): instantaneous fluorescence response; cell-to-cell contacts and intact cells (DU145 cells [8]): markedly reduced cell-to-cell-contacts and fewer intact cells
Fc1ccc(-c2nc3n(c2-c2ccncc2)CCS3)cc1 [SKF86002, reference compound] |  |  | real-time fluorescence response upon addition to ac-p38α (p38α [2]): instantaneous response
CCc1ccc(NCc2cc3cc(OC)c(OC)cc3n(CC(=O)Nc3cc(C)ccc3C)c2=O)cc1 [HTS 9] | 25.6 ± 4.7 | 24.9 ± 4.9 | 
Cc1ccccc1-n1nc(C(C)(C)C)cc1NC(=O)Nc1ccc(Cl)cc1 [12D, RL15] |  |  | Kd (p38α [1]; read-out: Kd): 347 nM

Now from value to molecule, other results behind:

IC50 (p38α [3]) [µM] | Kd (p38α [4]) [µM] | SMILES | further results
2.6 ± 0.9 |  | CCOC(=O)c1c(C)c(C(=O)N2CCN(Cc3ccccc3)CC2)c(C)n1CC [HTS 8] | 
2.6 ± 0.92 | 2.3 ± 0.57 | O=C(c1ccc(CSc2nc3ccncc3[nH]2)cc1)N1CCC(Cc2ccccc2)CC1 [HTS 11] | 
11 ± 1.5 | 1.3 ± 0.08 | Cc1ccc(C(=O)NCCC23CC4CC(CC(C4)C2)C3)cc1NC1=NC2CS(=O)(=O)CC2S1 (stereo not drawn) [HTS 12] | t1/2 of binding (p38α [2]; HTS hit, real-time kinetic measurement): ~38 s
> 50 | 3.1 ± 0.91 | O=C(CN1C(=O)c2cccc3cccc1c23)Nc1cccc(C(F)(F)F)c1 [HTS 5] | 
31.3 ± 17.2 | 29.4 ± 4 | Cc1ccc(NCc2cc3cc4c(cc3n(CC(=O)Nc3ccccc3F)c2=O)OCCO4)cc1 [HTS 10] | 
> 50 | 0.301 ± 0.059 | NS(=O)(=O)c1ccc(CCNc2nc3c(-c4cccc(C(F)(F)F)c4)nnn3c3ccccc23)cc1 [HTS 6] | 
